Data: patent publication US20240301409A1, “Chemically Modified Small Activating RNA” (RACTIGEN THERAPEUTICS, priority 2021, published 2024)
Entries after “also recorded” stand apart in the source; their conditions may differ. Where two headings read alike, the source gives them in different places. Oligonucleotides are written 5' to 3', each unit as a sugar letter and its base; * is a phosphorothioate linkage, no mark a phosphodiester; rarer units and linkages stand in square brackets, end groups in braces. Plain capitals give the bases only. d = 2'-deoxy (DNA); m = 2'-O-methyl; r = 2'-OH (RNA); f = 2'-fluoro

Key:
[1] = system: p21 gene; assay: p21 mRNA expression by RT-qPCR in T24 cells; type: cell-based, human; conditions: 10 nM, 72 hours, compared with unmodified Rag1-40 unless worded otherwise
Method: (§1) Ku-7-LG and T24 cells were transfected with the indicated saRNA at a final concentration of 10 nM for 3 days. After transfection, the RNA was extracted with the Qiagen RNeasy kit. After reverse transcription, the ABI 7500 fast real-time PCR system was used for qPCR amplification. The GAPDH gene was amplified as an internal reference. […] Dashed line indicates duplex Rag1-40 with no chemical modification in comparison, and the values above the line indicate stronger activity. The control was blank transfection without oligonucleotide. dsCon2 is transfected with a double-stranded scramble RNA. The value of the ordinate represents the mean±SD of 2 repeated treatments.
(§2) The control and dsCon2 were blank transfection and scramble dsRNA transfection, respectively. The values in the ordinate represent the mean±SD of 2 repeated treatments.
(§3) Human bladder cancer cells Ku-7-LG (ATCC), J82 (ATCC) and T24 (ATCC) were cultured in McCoy medium (Gibco) comprising 10% calf serum (Sigma-Aldrich) and 1% penicillin/Streptomycin (Gibco). Cells were cultured at 37° C. under 5% CO2. Ku-7-LG, J82 and T24 cells were plated into 12-well plates at 10×10^4 cells per well, transfected with the small RNA at a concentration of 10 nM (unless otherwise specified) for three days, using RNAiMax (Invitrogen, Carlsbad, CA) according to the manufacturer's instructions. Two replicate wells were set for each treatment.
(§4) After transfection, the medium was discarded and to each well 500 μl cell lysate was added and incubated at room temperature for 5 minutes. RNA was extracted with the Qiagen RNeasy kit, and after reverse transcription, qPCR analysis was performed on the ABI 7500 Fast Real-time PCR system (Applied Biosystems). Each sample was amplified in 3 replicate wells.
(§5) The PCR reaction conditions are: 95° C. for 30 seconds, 95° C. for 5 seconds, 60° C. for 30 seconds, and 40 cycles of amplification. The GAPDH gene was amplified as an internal reference at the same time. p21 was amplified with the p21F1/R1 primer pair, and the specific sequences of the amplification primers are shown in Table 1.
(§6) In order to calculate the expression value (Erel) of p21 (target gene) of a saRNA transfection sample relative to the control treatment, Formula 1 is used to input the Ct values of the target gene and the internal reference gene for calculation.
(§7) wherein, CtTm is the Ct value of the target gene from the control treatment sample; CtTs is the Ct value of the target gene from the saRNA treated sample; CtRm is the Ct value of the internal reference gene from the control treatment sample; and CtRs is the Ct value of the internal reference gene from the saRNA treated sample.
(§8) The main purpose of introducing chemical modifications to regulatory oligonucleotides of a gene is to improve their pharmaceutical properties, including enhancing in vivo stability and mitigating off-target effects (e.g., sequence-dependent targeting of unrelated genes, sequence-dependent or independent immune stimulation), while maintaining their gene regulatory capacity (gene knockdown or activation). To assess the effect of chemical modification on the RNAa activity of saRNA on the p21 gene, 10 nM unmodified (Rag1-40) and modified (Rag1-40-1 to Rag1-40-34) duplexes were transfected into Ku-7-LG and T24 cells, respectively. After 72 hours, the mRNA expression level of p21 was assessed by RT-qPCR. All duplexes induced p21 mRNA expression in all […] at least double that of the control.
(§9) In order to further evaluate the expression level of p21 mRNA after the different durations of treatment by the chemically modified saRNA duplexes, two saRNAs (RAG1-40-31 and RAG1-40-53) were randomly selected from the above chemically modified saRNA duplexes for detection. RAG1-40-31 and RAG1-40-53 were transfected into Ku-7-LG and T24 cells at a final concentration of 10 nM, for 1, 2, 3, 4, 7 and 9 days, respectively. Each treatment was set up in duplicate. […]

[2] = system: Ku-7-LG cells; assay: Cellular proliferation assay (CCK8) in Ku-7-LG cells; type: cell-based, human; conditions: 10 nM, 72 hours
Method: Ku-7-LG cells were transfected with the indicated saRNA at 10 nM for 3 days. […] The closer the luciferase value is to the control group, the lower the probability of off-target effects of saRNA is. Control and dsCon2 were blank transfection and double-stranded scramble RNA transfection, respectively. The value of the ordinate represents the mean±SD of two repeated treatments.
(§10) After the transfection, the number of viable cells was detected with a CCK8 kit, and plotted as the percentage of the blank control treatment group. […] A transfection sample without oligonucleotide served as a blank control. Non-specific duplex (dsCon) transfected sample served as a negative control. Data are presented as mean±SD of at least two independent experiments. The values below the dashed line indicate stronger growth inhibitory activity compared to duplex Rag1-40 without chemical modification.
as §3
(§11) Cells were plated in a 96-well plate at 2˜4×10^3 cells/well, cultured overnight, and transfected with the oligonucleotide duplexes. Three days after transfection, CCK8 (Dojindo) was used to detect cellular proliferation following manufacturer's instructions. The experimental steps are briefly described as follows: 10 μL of CCK8 solution was added to each well, incubated at 37° C. for 1 hour, and then the absorbance at 450 nm was measured using a microplate reader.
(§12) It is known that p21 induction by saRNA is that a variety of tumor suppressor factors such as p21 protein suppress the proliferation of cancer cells. To evaluate the effect of chemically modified saRNAs on the function of cancer cells, cells (Ku-7-LG and T24) were transfected with 10 nM unmodified and modified saRNAs for 72 hours, and the cellular proliferation was determined by CCK8. […] Furthermore, there was a correlation between RNA activating activity (FIGS. 7A-7B) and suppression of cellular proliferation activity (FIGS. 8A-8B). Strong p21 activators are usually also strong cytostatics.

[3] = system: T24 cells; assay: Cellular proliferation assay (CCK8) in T24 cells, alone and combined with Mitomycin C or valrubicin; type: cell-based, human; conditions: T24 cells, 10 nM, 72 hours, CCK8
Text: as §10
T24 cells were transfected with RAG1-40-31 at concentrations of 0.1, 0.5, 1, 5, 10, 25 and 50 nM for 24 hours, and then Mitomycin C was added at concentrations of 1, 10, 100, 1000 and 10000 nM. The combined treatment was carried out with concentrations in pairs. After treatment, the cellular proliferation was detected by CCK8 kit. FIGS. 16A-16B show the relative proliferation proportion of T24 cells after the combined treatment with chemically modified saRNA RAG1-40-31 and valrubicin. […] Control and DMSO are the blank transfection control and the solvent for dilution control, respectively.
T24 cells were transfected with RAG1-40-31 at concentrations of 0.1, 0.5, 1, 5, 10, 25 and 50 nM for 24 hours, and then valrubicin at concentrations of 1, 10, 100, 1000 and 10000 nM was added. The combined treatment was carried out with concentrations in pairs. After treatment, the cellular proliferation was detected by CCK8 kit.
as §3, §11, §12

[4] = target: T1, RNase A (Bos taurus, UniProt P61823)
T1 sequence (P61823 27-150): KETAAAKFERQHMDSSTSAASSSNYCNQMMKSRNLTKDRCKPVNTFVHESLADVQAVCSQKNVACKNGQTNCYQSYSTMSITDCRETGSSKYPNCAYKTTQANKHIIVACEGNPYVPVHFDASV
Method: The duplexes obtained at each time point above were each added to 1 μL of 10× loading buffer, and then frozen in liquid nitrogen. After incubation, all samples were detected for the double-stranded RNA by 4% agarose gel electrophoresis, and the content of each duplex was analyzed by Image J software.
The duplexes obtained at each time point indicated above were each added to 1 μL of 10× loading buffer, and then frozen in liquid nitrogen. After incubation, all samples were detected for the double-stranded RNA by 4% agarose gel electrophoresis, and the content of each duplex was analyzed by Image J software.
saRNA (1.5 μL, 10 μM) was incubated at a final concentration of 0.02 mg/mL in PBS in the presence of RNase A (Amresco, OH, USA) at 37° C. for different durations. At the end of the incubation, the mixture was snap frozen in liquid nitrogen to stop nuclease activity. Samples were analyzed on a 4% agarose gel and examined for duplex degradation.
All chemically modified duplexes (Rag1-40-1 to Rag1-40-32) were incubated with 0.02 μg/L of RNase A for different durations (0 to 96 hours). At the end of the incubation, the size and amount of duplexes were detected by agarose gel electrophoresis.

[5] = system: Rag1-40 target sequence in the 3′ UTR of firefly luciferase, COS-1 cells
[6] = system: p21 gene; assay: p21 mRNA expression by RT-qPCR in Ku-7-LG cells; type: cell-based, human; conditions: 10 nM, 72 hours, compared with unmodified Rag1-40 unless worded otherwise
Method: as §1, §2, §3, §4, §5, §6, §7, §8, §9

[7] = system: Rag1-40 target sequence in the 3′ UTR of firefly luciferase, COS-1 cells; assay: Analysis of off-target effects (pOff-Target dual luciferase reporter in COS-1 cells); conditions: lysed 48 hours after transfection, luciferase activity

Substance | RNA activation activity (p21 mRNA), in words [1] | suppression of cellular proliferation, in words [2] | suppression of cellular proliferation, in words [3] | degradation of duplex at 96 hours [4] | off-target effect compared to unmodified Rag1-40, in words [5] | RNA activation activity (p21 mRNA), in words [6] | off-target effect compared to unmodified Rag1-40, in words [7]
Rag1-40-11: saRNA duplex: sense fCfCAACUCAUUCUCCAAGfUfC (SEQ ID NO 14); antisense fUmAfCfUfUmGmGmAmGmAmAfUmGmAmGfUfUmGmGfCmA (SEQ ID NO 8) (sense fCfCrArArCrUrCrArUrUrCrUrCrCrArArGfUfC) | reduced activity | negatively affects proliferation suppression activity | negatively affects proliferation suppression activity | little or no signs of degradation | completely inhibited | – | –
Rag1-40-16: saRNA duplex: sense fCfCAACUCAUUCUCCAAGfUfC (SEQ ID NO 14); antisense fUactfUGGAGAAfUGAGfUfUGG*fC*A (SEQ ID NO 13) (sense CCAACUCAUUCUCCAAGUC; antisense UACTUGGAGAAUGAGUUGGCA; 2'-F, DNA residues, phosphorothioate modifications; modified_base (1)..(19) (1,2,18,19)=2′-fluoro; modified_base (1)..(17) (1,2,9,13,14,17)=2′-fluoro; (1)..(21) (1,5,6,7,8,9,10,11,12,13,14,15,1,61,7,18,19,20, 21)=RNA; (2)..(4) (2,3,4)=DNA; modified_base (16)..(18) (16,17,18)=phosphorothioate (PS) backbone modification) | – | weakens the activity of the saRNA duplex to suppress cellular proliferation | weakens the activity of the saRNA duplex to suppress cellular proliferation | little or no signs of degradation | increased off-target effects | – | –
Rag1-40-32: saRNA duplex: sense fCfCAACUCAUUCUCCAAG*U*C (SEQ ID NO 16); antisense fUactfUGGAGAAfUGAGfUfUGG*fC*A (SEQ ID NO 13) (sense fCfCrArArCrUrCrArUrUrCrUrCrCrArArG*rU*rC; antisense fUdAdCdTfUrGrGrArGrArAfUrGrArGfUfUrGrG*fC*rA) | reduced activity; also recorded: attenuated activity | weak cellular proliferation inhibitory activity; also recorded: weakens the activity of the saRNA duplex to suppress cellular proliferation | weakens the activity of the saRNA duplex to suppress cellular proliferation | little or no signs of degradation | increased off-target effects | attenuated activity; also recorded: weak RNA activating activity | –
Rag1-40-33: saRNA duplex: sense CCAACUCAUUCUCCAAGUC (SEQ ID NO 17); antisense UactUGGAGAAUGAGUUGGCA (SEQ ID NO 18) (antisense rUdAdCdTrUrGrGrArGrArArUrGrArGrUrUrGrGrCrA; sense: unmodified RNA) | reduced activity; also recorded: attenuated activity | weak cellular proliferation inhibitory activity | – | – | – | attenuated activity; also recorded: weak RNA activating activity | mitigated or similar off-target effects
Rag1-40-34: saRNA duplex: sense CCAACUCAUUCUCCAAGUC (SEQ ID NO 17); antisense UacttggAGAAUGAGUUGGCA (SEQ ID NO 19) (antisense rUdAdCdTdTdGdGrArGrArArUrGrArGrUrUrGrGrCrA; sense: RNA, phosphodiester; further chemistry not fully specified) | reduced activity; also recorded: attenuated activity | weak cellular proliferation inhibitory activity | – | – | – | attenuated activity; also recorded: weak RNA activating activity | mitigated or similar off-target effects
